Results as given in patent publication US11780826B2 (Amgen Inc., priority 2017, dated 2023).

System: Bovine cardiac myofibrils
Assay: In vitro model of dose-dependent myofibril ATPase modulation (AC1.4, pyruvate kinase/lactate dehydrogenase-coupled ATPase assay at pCa25)
Type: biochemical
Conditions: concentration at which ATPase activity was 1.4-fold higher than the bottom of the dose curve, mean of a minimum of two independent tests
Procedure, shortened: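 Absorbance at 340 nm tracked ATP hydrolysis through pyruvate kinase/lactate dehydrogenase coupling (0.5 mM NADH, 1.5 mM PEP). Myofibrils from detergent-homogenized bovine heart, 1 mM ATP, pH 6.80, EGTA/CaCl2 buffering. Dose-response curves fitted with a four-parameter Hill equation.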

Row | Molecule | AC1.4
1 | N#CC1CN(S(=O)(=O)c2cccc(C(=O)N3CCC[C@@H]3C(=O)N[C@H](CO)c3cccc(C(F)(F)F)c3)c2)C1 [Example 158, 1-(3-((3-cyano-1-azetidinyl)sulfonyl)benzoyl)-N-((1S)-2-hydroxy-1-(3-(trifluoromethyl)phenyl)ethyl)-D-prolinamide] | 0.273 µM
2 | O=C(N[C@@H](c1cc(F)c(C(F)(F)F)cc1F)C1CC1)[C@H]1C[C@H]2C[C@H]2N1C(=O)c1cc(C(F)(F)F)ccn1 [Example 289, (1R,3R,5R)-N-((R)-cyclopropyl(2,5-difluoro-4-(trifluoromethyl)phenyl)methyl)-2-((4-(trifluoromethyl)-2-pyridinyl)carbonyl)-2-azabicyclo[3.1.0]hexane-3-carboxamide] | 0.7506 µM
3 | CS(=O)(=O)c1cccc(C(=O)N2[C@@H](C(=O)N[C@@H](c3ccc(Cl)c(F)c3)C3COC3)C[C@H]3C[C@H]32)c1 [Example 264, (1R,3R,5R)-N-((R)-(4-chloro-3-fluorophenyl)(3-oxetanyl)methyl)-2-(3-(methylsulfonyl)benzoyl)-2-azabicyclo[3.1.0]hexane-3-carboxamide] | 0.6615 µM
4 | CCC(NC(=O)[C@H]1CCCN1C(=O)[C@H]1CCCN(S(=O)(=O)N2CC(C#N)C2)C1)c1ccccc1OC (stereo partly drawn) [Example 804, (2R)-1-((S)-1-((3-cyanoazetidin-1-yl)sulfonyl)piperidine-3-carbonyl)-N-(1-(2-methoxyphenyl)propyl)pyrrolidine-2-carboxamide] | 9.7525 µM
5 | COc1ccc([C@H](NC(=O)[C@H]2CCCN2C(=O)[C@H]2CCCN(S(=O)(=O)N3CC(C#N)C3)C2)C(F)(F)F)cc1F [Example 776, 1-(((3S)-1-((3-cyano-1-azetidinyl)sulfonyl)-3-piperidinyl)carbonyl)-N-((1S)-2,2,2-trifluoro-1-(3-fluoro-4-methoxyphenyl)ethyl)-D-prolinamide] | 8.3695 µM
6 | CCS(=O)(=O)c1cccc(C(=O)N2[C@@H](C(=O)N[C@@H](c3ccc(Cl)cc3)C3COC3)C[C@H]3C[C@H]32)c1 [Example 403, (1R,3R,5R)-N-((R)-(4-chlorophenyl)(3-oxetanyl)methyl)-2-(3-(ethylsulfonyl)benzoyl)-2-azabicyclo[3.1.0]hexane-3-carboxamide] | 1.4025 µM
7 | C[C@H](C(=O)N[C@H](C)c1ccc(Cl)cc1F)N(C)C(=O)[C@H]1CCCN(S(=O)(=O)N2CC(C#N)C2)C1 [Example 317, (3S)-N-((2R)-1-(((1R)-1-(4-chloro-2-fluorophenyl)ethyl)amino)-l-oxo-2-propanyl)-1-((3-cyano-1-azetidinyl)sulfonyl)-N-methyl-3-piperidinecarboxamide] | 0.8619 µM
8 | Cc1ccc(C(=O)N2[C@@H](C(=O)N[C@@H](c3ccc(C(F)(F)F)cc3F)C3COC3)C[C@H]3C[C@H]32)cc1S(C)(=O)=O [Example 727, (1R,3R,5R)-N-((R)-(2-fluoro-4-(trifluoromethyl)phenyl)(3-oxetanyl)methyl)-2-(4-methyl-3-(methylsulfonyl)benzoyl)-2-azabicyclo[3.1.0]hexane-3-carboxamide] | 6.61 µM
9 | CC[C@@H](NC(=O)[C@H]1CCCN1C(=O)c1cccc(S(C)(=O)=O)c1)c1ccc(Cl)c(F)c1 [Example 772, N-((1R)-1-(4-chloro-3-fluorophenyl)propyl)-1-(3-(methylsulfonyl)benzoyl)-D-prolinamide] | 8.175 µM
10 | CS(=O)(=O)c1cccc(C(=O)N2[C@@H](C(=O)N[C@@H](c3cc(F)c(Cl)cc3F)C3COC3)C[C@H]3C[C@H]32)c1 [Example 74, (1R,3R,5R)-N-((R)-(4-chloro-2,5-difluorophenyl)(3-oxetanyl)methyl)-2-(3-(methylsulfonyl)benzoyl)-2-azabicyclo[3.1.0]hexane-3-carboxamide] | 0.09935 µM
11 | CN1CC(C(NC(=O)[C@H]2C[C@H]3C[C@H]3N2C(=O)c2cccc(S(C)(=O)=O)c2)c2ccc(C(F)(F)F)cc2F)CC1=O (stereo partly drawn) [Example 519, (1R,3R,5R)-N-((2-fluoro-4-(trifluoromethyl)phenyl)(1-methyl-5-oxopyrrolidin-3-yl)methyl)-2-(3-(methylsulfonyl)benzoyl)-2-azabicyclo[3.1.0]hexane-3-carboxamide] | 2.367 µM
12 | O=C(N[C@@H](c1cc(F)c(Cl)cc1F)C1CC1)[C@H]1C[C@@H](O)CN1C(=O)c1cncc(C(F)(F)F)c1 [Example 641, (4R)-N-((R)-(4-chloro-2,5-difluorophenyl)(cyclopropyl)methyl)-4-hydroxy-1-((5-(trifluoromethyl)-3-pyridinyl)carbonyl)-D-prolinamide] | 4.262 µM
13 | 1-(((3S)-1-(((6R)-6-hydroxy-2-azaspiro[3.4]oct-2-yl)sulfonyl)-3-piperidinyl)carbonyl)-N-(4-(trifluoromethyl)benzyl)-D-prolinamide,1-(((3S)-1-(((6S)-6-hydroxy-2-azaspiro[3.4]oct-2-yl)sulfonyl)-3-piperidinyl)carbonyl)-N-(4-(trifluoromethyl)benzyl)-D-prolinamide [Example 750] | 7.331 µM
14 | CCNc1ccccc1C(=O)N1[C@@H](C(=O)N[C@@H](c2ccc(C(F)(F)F)cc2F)C2COC2)C[C@H]2C[C@H]21 [Example 217, (1R,3R,5R)-2-(2-(ethylamrno)benzoyl)-N-((R)-(2-fluoro-4-(trifluoromethyl)phenyl)(3-oxetanyl)methyl)-2-azabicyclo[3.1.0]hexane-3-carboxamide] | 0.4751 µM
15 | N#CC1CN(S(=O)(=O)c2cccc(C(=O)N3CCC[C@@H]3C(=O)NCCn3ccc(C(F)(F)F)n3)c2)C1 [Example 689, 1-((3-((3-cyano-1-azetidinyl)sulfonyl)phenyl)carbonyl)-N-(2-(3-(trifluoromethyl)-1H-pyrazol-1-yl)ethyl)-D-prolinamide] | 5.334 µM
16 | N#CC1CN(S(=O)(=O)N2CCC[C@H](C(=O)N3CCC[C@@H]3C(=O)NCc3ccc(Cl)c(C(F)(F)F)c3)C2)C1 [Example 333, N-(4-chloro-3-(trifluoromethyl)benzyl)-1-(((3S)-1-((3-cyano-1-azetidinyl)sulfonyl)-3-piperidinyl)carbonyl)-D-prolinamide] | 0.921 µM
17 | CN(C)S(=O)(=O)c1cccc(C(=O)N2C[C@H]3C[C@H]3[C@@H]2C(=O)NCc2ccc(C(F)(F)F)cc2)c1 [Example 478, (1R,2R,5S)-3-(3-(dimethylsulfamoyl)benzoyl)-N-(4-(trifluoromethyl)benzyl)-3-azabicyclo[3.1.0]hexane-2-carboxamide] | 2.082 µM
18 | NS(=O)(=O)c1ccc(F)c(C(=O)N2CCC[C@@H]2C(=O)N[C@@H](c2ccc(C(F)(F)F)cc2F)C2CC2)c1 [Example 566, N-((R)-cyclopropyl(2-fluoro-4-(trifluoromethyl)phenyl)methyl)-1-(2-fluoro-5-sulfamoylbenzoyl)-D-prolinamide] | 3.0845 µM
19 | O=C(NCc1ccc(C(F)(F)F)cc1)[C@H]1CCCN1C(=O)[C@H]1CCCN(S(=O)(=O)N2CC(Oc3ccc(Cl)cc3)C2)C1 [Example 424, 1-(((3S)-1-((3-(4-chlorophenoxy)-1-azetidinyl)sulfonyl)-3-piperidinyl)carbonyl)-N-(4-(trifluoromethyl)benzyl)-D-prolinamide] | 1.5805 µM
20 | NS(=O)(=O)c1cccc(C(=O)N2C[C@@H](F)C[C@@H]2C(=O)N[C@@H](c2ccc(C(F)(F)F)cc2F)C2CC2)c1 [Example 531, (4S)-N-((R)-cyclopropyl(2-fluoro-4-(trifluoromethyl)phenyl)methyl)-4-fluoro-1-(3-sulfamoylbenzoyl)-D-prolinamide] | 2.553 µM
21 | N#CC1CN(S(=O)(=O)N2CCN[C@H](C(=O)N3CCC[C@@H]3C(=O)NCc3ccc(Cl)c(F)c3)C2)C1 [Example 174, N-(4-chloro-3-fluorobenzyl)-1-(((2S)-4-((3-cyano-1-azetidinyl)sulfonyl)-2-piperazinyl)carbonyl)-D-prolinamide] | 0.3052 µM
22 | N#CC1CN(S(=O)(=O)N2CCC[C@H](C(=O)N3CCC[C@@H]3C(=O)N[C@@H](c3ccc(Cl)cc3)C(F)(F)F)C2)C1 [Example 308, N-((1S)-1-(4-chlorophenyl)-2,2,2-trifluoroethyl)-1-(((3S)-1-((3-cyano-1-azetidinyl)sulfonyl)-3-piperidinyl)carbonyl)-D-prolinamide] | 0.8085 µM
23 | N#Cc1ccc(CNC(=O)[C@H]2CCCN2C(=O)[C@H]2CCCN(S(=O)(=O)N3CC(C#N)C3)C2)cc1 [Example 551, 1-(((3S)-1-((3-cyano-1-azetidinyl)sulfonyl)-3-piperidinyl)carbonyl)-N-(4-cyanobenzyl)-D-prolinamide] | 2.8435 µM
24 | NS(=O)(=O)c1ccc(Cl)c(C(=O)N2CCC[C@@H]2C(=O)N[C@@H](c2ccc(C(F)(F)F)cc2F)C2CC2)c1 [Example 687, 1-(2-chloro-5-sulfamoylbenzoyl)-N-((R)-cyclopropyl(2-fluoro-4-(trifluoromethyl)phenyl)methyl)-D-prolinamide] | 5.299 µM
25 | CC(C)[C@@H](NC(=O)[C@H]1CCCN1C(=O)c1cccc(S(=O)(=O)N(C)C)c1)c1ccc(C(F)(F)F)cc1F [Example 185, 1-(3-(dimethylsulfamoyl)benzoyl)-N-((1R)-1-(2-fluoro-4-(trifluoromethyl)phenyl)-2-methylpropyl)-D-prolinamide] | 0.3371 µM
26 | CCc1ccnc(C(=O)N2[C@@H](C(=O)N[C@@H](c3ccc(C(F)(F)F)cc3F)C3COC3)C[C@H]3C[C@H]32)c1 [Example 786, (1R,3R,5R)-2-((4-ethyl-2-pyridinyl)carbonyl)-N-((R)-(2-fluoro-4-(trifluoromethyl)phenyl)(3-oxetanyl)methyl)-2-azabicyclo[3.1.0]hexane-3-carboxamide] | 8.9175 µM
27 | O=C(N[C@@H](c1cc(F)c(Cl)cc1F)C1COC1)[C@H]1C[C@H]2C[C@H]2N1C(=O)c1cncc(C(F)(F)F)c1 [Example 282, (1R,3R,5R)-N-((R)-(4-chloro-2,5-difluorophenyl)(3-oxetanyl)methyl)-2-((5-(trifluoromethyl)-3-pyridinyl)carbonyl)-2-azabicyclo[3.1.0]hexane-3-carboxamide] | 0.7195 µM
